According to patent US20220145264A1, “CULTURE MEDIUM FOR MAMMALIAN EXPANDED POTENTIAL STEM CELLS, COMPOSITION, AND METHODS THEREOF” (THE UNIVERSITY OF HONG KONG, priority 2019, published 2022):

How the values were obtained:
H1-EPSCs = experiment: Requirement of individual culture components for hEPSCs (RT-qPCR, AP+ colony formation); type: cell-based, human; conditions: in the presence of 5.0 ng/ml
Experimental: (§1) Porcine and human EPSC cultures were routinely maintained on STO feeders. STO feeder plates were prepared 3-4 days before passaging by thawing and plating the mitomycin C inactivated STO cells on 0.1% gelatinised plates at the density of ˜1.1×10^4 cells/cm^2. Porcine/human EPSC cells were maintained on STO feeder layers and enzymatically passaged every 3-5 days by a brief PBS wash followed by treatment for 3-5 minutes with 0.25% trypsin/EDTA (Gibco, Cat. No. 25500-054). The cells were dissociated and centrifuged (300 g×5 minutes) in M10 medium. M10: knockout DMEM (Gibco, Cat. No. 10829-018), 10% FBS (Gibco, Cat. No. 10270), 1× Glutamine Penicillin-Streptomycin (Thermo Fisher Scientific, Cat. No. 11140050) and 1×NEAA (Thermo Fisher Scientific, Cat. No. 10378-016). After removing supernatant, the porcine/human EPSCs were re-suspended and seeded in pEPSCM/hEPSCM supplemented with 5 μM ROCK inhibitor Y-27632 (Tocris, Cat. No. 1254). 5% FBS (Gibco, Cat. No. 10270) and 10% KnockOut Serum Replacement (KSR) (Gibco, Cat. No. 10828028) were added in pEPSCM and hEPSCM respectively to improve cells survive. 12-24 hours later, medium was switched to pEPSCM/hEPSCM only. Both pEPSCM and hEPSCM are N2B27 based media. N2B27 basal media (500 ml) was prepared by inclusion of the following components: 482.5 ml DMEM/F-12 (Gibco, Cat. No. 21331-020), 2.5 ml N2 supplement (Thermo Fisher Scientific, Cat. No. 17502048), 5 ml B27 supplement (Thermo Fisher Scientific, Cat. No. 17504044), 5 ml 1× Glutamine Penicillin-Streptomycin (Thermo Fisher Scientific, Cat. No. 11140-050), and 5 ml 1×NEAA (Thermo Fisher Scientific, Cat. No. 10378-016), 0.1 mM 2-mercaptoethanol (Sigma, Cat. No. M6250). pEPSCM (500 ml) was generated by adding the following small molecules and cytokines into 500 ml N2B27 basal media: 0.2 μM CHIR99021(GSK3i, TOCRIS, Cat. No. 4423), 1 μM WH-4-023 (SRC inhibitor, TOCRIS, Cat. No. 5413), 2.5 μM XAV939 (Sigma, Cat. No. X3004) or 2.5 μM IWR-1 (TOCRIS, Cat. No. 3532), […] Vitamin C (Sigma, Cat. No. 49752-100G), 10 ng/ml LIF (Stem Cell Institute, University of Cambridge. SCI) and 20 ng/ml ACTIVIN (SCI). hEPSCM (500 ml) was generated by adding the following components into 500 ml N2B27 basal media: 1.0 μM CHIR99021(GSK3 inhibitor, TOCRIS, Cat. No. 4423), 0.5 μM A-419259 (SRC inhibitor, TOCRIS, Cat. No. 3914), 2.5 μM XAV939 (Sigma, Cat. No. X3004), […] Vitamin C (Sigma, Cat. No. 49752-100G), 10 ng/ml LIF (SCI). Although both targeting SRC family kinases (SFKs), WH-4-023 and A419259 were preferred for porcine and human EPSCs, respectively. […] The concentrations of CHIR99021 for porcine and human EPSC cultures are 0.2 μM and 1.0 μM, respectively. […] 0.25 μM SB 590885 (BRAF inhibitor, R&D, Cat. No. 2650) and 2.0 μM SP600125 ([…], TOCRIS, Cat. No. 1496) were included to improve porcine and human EPSC cultures, but they were not essential for the routine maintenance of porcine and human EPSCs. All cell cultures in this paper were performed under conditions of 37° C. and 5% CO2 unless stated otherwise.
(§2) Total RNA was isolated using an RNeasy Mini Kit (Qiagen, Cat. No. 74106) for cultured cells or RNeasy Micro Kit (Qiagen, Cat. No. 74034) for sorted NANOS3-mCherry^+ cells. RNA was subsequently quantified and treated with gDNA WipeOut to remove genomic DNA. Complementary DNA (cDNA) was prepared using a QuantiTect Reverse Transcription Kit (Qiagen, Cat. No. 205311). RT-qPCR primers or TaqMan Gene Expression Assays (Life Technologies) are listed in Supplementary Table 10 and 11. ABsolute Blue qPCR ROX Mix (ABgene, Cat. No. AB4138B) were used for probe based qPCR assays and SYBR Green ROX qPCR Mastermix (Qiagen, Cat. No. 330523) were used for primer based qPCR assays. All qPCR reactions were performed on ABI 7900 HT Sequence Detection System (Life Technologies). Information on all primers and probes used for qPCR analysis are provided in Supplementary Table 10 and 11. Gene expression was determined relative to GAPDH using the […]. […]

pEPSCs^Emb = experiment: Requirement of individual culture components for pEPSCs (RT-qPCR, AP+ colony formation); type: cell-based, porcine
Experimental: as §1, §2

Compound: ACTIVIN A: Human Recombinant ACTIVIN A cytokine
- cell survival at passaging (H1-EPSCs): substantially improved
- cell survival and pluripotency factor expression (pEPSCs^Emb; removing ACTIVIN A from pEPSCM): massive cell loss and down-regulation of pluripotency factors

Compound: O=C(NOC[C@H](O)CO)c1ccc(F)c(F)c1Nc1ccc(I)cc1F [PD0325901]
- pEPSC survival as measured by colony formation in serial passaging (pEPSCs^Emb; 0.1 μM added to pEPSCM): decreased pEPSC survival
